According to US20260144798A1, “Disruption of Vascular Smooth Muscle Relaxation by Carfilzomib May be the Primary Reason for CFZ-Induced Vascular Dysfunction” (AMGEN INC., priority 2019, published 2026):
pEC50: −log10 of the molar value. Read-outs that look alike come from different tables or passages of the source.

Tests used:
[1] = tested on: rat aortic rings; test: Sodium nitroprusside-induced relaxation of phenylephrine-precontracted rat aortic rings; conditions: for prevention of CFZ induced vascular dysfunction in the presence of SNP: inhibitor 10 mins before 2.7 μM CFZ for 1 hour, 1 μM Phenylephrine precontraction (FIG. 8B, 9B)
Description: (§3) For assessment of the effect of CFZ on vascular relaxation, the pre-treated aortic rings were incubated with 1 μM PE for 20 minutes to induce contraction. For experiments involving sildenafil and tadalafil, a 10-minute pre-treatment with 30 nM of these smooth muscle relaxants was done prior to the incubation with CFZ. After reaching a stable contraction, ACh, sodium nitroprusside (SNP), nifedipine, riociguat, or cinaciguat was added to the chamber at an increasing concentration from 100 pM to 10 μM; each stepwise concentration increase was added after the response to the current concentration reached a plateau. The relaxation was continuously measured and plotted as percent relaxation normalized to the response with 1 μM PE.
(§4) Aortas were isolated from 8-10 week old CD® (Sprague Dawley) rats (from Charles River Laboratories) in an ice-cold, oxygenated (95% O2, 5% CO2) Krebs-Henseleit buffer. The aortas were then carefully cleaned to remove perivascular fat and cut into 2-mm rings that were mounted between two stainless steel wires in the myograph chamber containing 8 mL of Krebs-Henseleit buffer in 95% O2 and 5% CO2 at 37° C. Rings were stretch until a final stretch of 10 mN (Newton) was reached and incubated for 30 mins for equilibration.

[2] = tested on: rat aortic rings; test: Angiotensin induced contraction (AUC) of rat aortic rings; conditions: inhibitor 10 mins before 2.7 μM CFZ 1.5 hour; 30 nM Angiotensin (FIG. 11)
Description: Aortas were isolated from 8-10 week old CD® (Sprague Dawley) rats (from Charles River Laboratories) in an ice-cold, oxygenated (95% O2, 5% CO2) Krebs-Henseleit buffer. The aortas were then carefully cleaned to remove perivascular fat and cut into 2-mm rings that were mounted between two stainless steel wires in the myograph chamber containing 8 mL of Krebs-Henseleit buffer in 95% O2 and 5% CO2 at 37° C. Rings were stretch until a final stretch of 10 mN (Newton) was reached and incubated for 30 mins for equilibration. The rings were constricted with 8 mL of 80 mM KPSS for 15 minutes, followed by 3 washes with the Krebs-Henseleit buffer until the force returned to the baseline stretch. The aorta were then treated for one of the following experiments: • For protein expression studies the aortic rings were pre-treated with 100 μM N(gamma)-nitro-L-arginine methyl ester (L-NAME; Sigma-Aldrich) and 10 μM indomethacin for 10 minutes prior to the pre-incubation with CFZ (Amgen Inc.) for 1.5 hours.
Following the two incubation the rings were treated with either vehicle or 2.7 μM CFZ for further 1.5 hours before addition of 30 nM Angiotensin for 30 min. Angiotensin induced transient contraction which returned to the baseline in 30 mins. Area Under the Curve (AUC) of angiotensin induced contraction was measured.
Aortic rings were incubated for 10 min with 100 μM LNAME+10 μM indomethacin (endothelium derived relaxing agents blockers) for 10 mins followed by addition of 10 μM SB 203580 (p38 inhibitor) or PF3644022 (MAPKAPK-2 inhibitor) in some rings for 10 more mins as indicated. This was followed by addition of 2.7 μM CFZ in some rings as indicated for 1.5 hour. 30 nM Angiotensin was added for 30 min. Angiotensin induced transient contraction which returned to the baseline in 30 mins.

[3] = tested on: rat aortic rings; test: Acetylcholine-induced relaxation of phenylephrine-precontracted rat aortic rings; conditions: for prevention of CFZ induced vascular dysfunction in the presence of ACh: inhibitor 10 mins before 2.7 μM CFZ for 1 hour, 1 μM Phenylephrine precontraction (FIG. 8A, 9A); for EC50 for ACh-induced relaxation, CFZ in combination with PDE5 inhibitor: PDE5 inhibitor 30 nM, 10-minute pre-treatment before CFZ, CFZ alone 7.3×10^−8, vehicle alone 1.9×10^−8 (FIG. 5B)
Description: as §3, §4

[4] = tested on: rat aortic rings; test: Basal vascular tone of isolated rat aortic rings, isometric myograph; conditions: 10 μM SB 203580 10 mins before 2.7 μM CFZ for 3 hour; LNAME+indomethacin (FIG. 10)
Description: (§1) An isometric myograph (DMT 620M) was used for ex vivo measurement of vascular function. Eight-to 10-week old Sprague Dawley rats (purchased from Charles River Laboratories, Wilmington, MA) were first anesthetized with 3% isoflurane and then euthanized using inhaled desflurane. The aortas were isolated in an ice-cold, oxygenated (95% O2, 5% CO2) Krebs-Henseleit buffer (118.3 mM NaCl, 4.7 mM KCl, 1.2 mM MgSO4, 1.2 mM KH2PO4, 2.5 mM CaCl2, 25 mM NaHCO3, and 11.0 mM glucose; purchased from Sigma-Aldrich, St. Louis, MO). The thoracic aorta was carefully cleaned to remove perivascular fat and cut into 2-mm rings that were mounted between two stainless steel wires in the myograph chamber containing 8 mL of Krebs-Henseleit buffer in 95% O2 and 5% CO2 at 37° C. First, the rings were equilibrated in the chamber for 20 minutes, followed by a gradual increase of mechanical stretch until a final stretch of 10 mN (Newton) was reached. After an additional incubation with fresh buffer for 30 minutes, the rings were constricted with 8 mL of 80 mM KPSS (43 mM NaCl, 80 mM KCl, 2.5 mM CaCl2, 1.2 mM MgSO4, 1.2 mM KH2PO4, 25.0 mM NaHCO3, and 11.0 mM glucose) for 15 to 20 minutes, followed by 3 washes with the Krebs-Henseleit buffer until the force returned to the baseline stretch. The tension of the aortic rings was continuously measured with the Lab Chart 7 data acquisition system (ADInstruments, Colorado Springs, CO). In Some of the experiments the aortic rings were pre-treated with 100 μM N(gamma)-nitro-L-arginine methyl ester (L-NAME; Sigma-Aldrich) and 10 μM indomethacin for 10 minutes prior to the pre-incubation with CFZ (Amgen Inc.) for 2 hours. After an additional incubation with fresh buffer for 30 minutes, the rings were constricted with 8 mL of 80 mM KPSS (43 mM NaCl, 80 mM KCl, 2.5 mM CaCl2, 1.2 mM MgSO4, 1.2 mM KH2PO4, 25.0 mM NaHCO3, and 11.0 mM glucose) for 15 to 20 minutes, followed by 3 washes with the Krebs-Henseleit buffer until the force returned to the baseline stretch. The tension of the aortic rings was continuously measured with the Lab Chart 7 data acquisition system (ADInstruments, Colorado Springs, CO).
To assess the effect of CFZ on vascular contraction, the aortic rings were pre-treated with or without CFZ for 2 hours, followed by treatment with an increasing concentration of phenylephrine (PE) from 10 nM to 1 μM. After the maximum contraction was achieved, the aortic rings were washed 3 times until the force returned to baseline. The contraction was continuously measured and plotted as percent contraction normalized to the response of KPSS. […] The relaxation was continuously measured and plotted as percent relaxation normalized to the response with 1 μM PE. […]

[5] = tested on: rat aortic rings; test: Nifedipine-induced relaxation of rat aortic rings; conditions: increasing concentration of nifedipine (FIG. 2C)
Description: An isometric myograph (DMT 620M) was used for ex vivo measurement of vascular function. Eight-to 10-week old Sprague Dawley rats (purchased from Charles River Laboratories, Wilmington, MA) were first anesthetized with 3% isoflurane and then euthanized using inhaled desflurane. The aortas were isolated in an ice-cold, oxygenated (95% O2, 5% CO2) Krebs-Henseleit buffer (118.3 mM NaCl, 4.7 mM KCl, 1.2 mM MgSO4, 1.2 mM KH2PO4, 2.5 mM CaCl2, 25 mM NaHCO3, and 11.0 mM glucose; purchased from Sigma-Aldrich, St. Louis, MO). […] The tension of the aortic rings was continuously measured with the Lab Chart 7 data acquisition system (ADInstruments, Colorado Springs, CO). […]
(§2) To assess the effect of CFZ on vascular contraction, the aortic rings were pre-treated with or without CFZ for 2 hours, followed by treatment with an increasing concentration of phenylephrine (PE) from 10 nM to 1 μM. […] The contraction was continuously measured and plotted as percent contraction normalized to the response of KPSS. […] The relaxation was continuously measured and plotted as percent relaxation normalized to the response with 1 μM PE.

[6] = tested on: rat aortic rings; test: sGC activator (cinaciguat, riociguat)-induced relaxation of rat aortic rings; conditions: Rattus norvegicus
Description: as §1, with “In Some of the experiments the aortic rings were pre-treated with 100 μM N(gamma)-nitro-L-arginine methyl ester (L-NAME; Sigma-Aldrich) and 10 μM indomethacin for 10 minutes prior to the pre-incubation with CFZ (Amgen Inc.) for 2 hours. After an additional incubation with fresh buffer for 30 minutes, the rings were constricted with 8 mL of 80 mM KPSS (43 mM NaCl, 80 mM KCl, 2.5 mM CaCl2, 1.2 mM MgSO4, 1.2 mM KH2PO4, 25.0 mM NaHCO3, and 11.0 mM glucose) for 15 to 20 minutes, followed by 3 washes with the Krebs-Henseleit buffer until the force returned to the baseline stretch.” left out
as §2

EC50 for ACh-induced relaxation, CFZ in combination with PDE5 inhibitor [3] | SMILES | prevention of CFZ induced vascular dysfunction in the presence of SNP [1] | prevention of CFZ-increased angiotensin induced contraction [2] | prevention of CFZ induced vascular dysfunction in the presence of ACh [3] | other results
– | Cc1ccc(-c2ccc3c(ccc4sc5c(c43)NC[C@@H](C)NC5=O)n2)cn1 [PF3644022] | prevented CFZ induced vascular dysfunction | prevented | prevented CFZ induced vascular dysfunction | –
– | C[S+]([O-])c1ccc(-c2nc(-c3ccncc3)c(-c3ccc(F)cc3)[nH]2)cc1 (centres unmarked) [SB203580] | prevented CFZ induced vascular dysfunction | prevented | prevented CFZ induced vascular dysfunction | prevention of CFZ induced increase in vascular tone [4]: completely prevented
– | COC(=O)C1=C(C)NC(C)=C(C(=O)OC)C1c1ccccc1[N+](=O)[O-] [nifedipine] | – | – | – | plateau of vascular relaxation [5]: around 50%
– | COC(=O)N(C)c1c(N)nc(-c2nn(Cc3ccccc3F)c3ncccc23)nc1N [riociguat] | – | – | – | pEC50 ([6]; rings pre-incubated with CFZ (FIG. 4C), read-out: EC50 for relaxation, sGC activator with CFZ): 7.77; pEC50 ([6]; without CFZ (FIG. 4C), read-out: EC50 for relaxation, sGC activator alone): 7.74
2.8×10^−8 | CCCc1nn(C)c2c(=O)[nH]c(-c3cc(S(=O)(=O)N4CCN(C)CC4)ccc3OCC)nc12 [sildenafil] | – | – | – | reversal of CFZ effect on VSM relaxation in the presence of SNP ([1]; 30 nM pre-treatment 10 minutes before CFZ (FIG. 5A)): reversed the CFZ effect on VSM relaxation; reversal of CFZ effect on VSM relaxation in the presence of ACh ([3]; 30 nM pre-treatment 10 minutes before CFZ (FIG. 5B)): reversed the CFZ effect on VSM relaxation
2.8×10^−8 | CN1CC(=O)N2[C@H](c3ccc4c(c3)OCO4)c3[nH]c4ccccc4c3C[C@@H]2C1=O [tadalafil] | – | – | – | –
